Assay results taken from PMC11748363, “Antimicrobial and Antiproliferative Properties of 2‐Phenyl‐N‐(Pyridin‐2‐yl)acetamides” (Chemical Biology & Drug Design, 2025).
In brackets after ≈: the same amount, converted by molar mass. Where two headings read alike, the source gives them in different places.

Assays:
[1] = test system: Mycobacterium tuberculosis H37Ra; assay: Antimycobacterial microdilution broth MIC (resazurin), Mtb H37Ra; format: cell-based; details: for MIC: Mycobacterium tuberculosis, H37RA, read-out: MIC Mtb H37Ra
[2] = test system: Mycolicibacterium smegmatis DSM 43465; assay: Antimycobacterial microdilution broth MIC (resazurin), M. smegmatis; format: cell-based; details: DSM43465, read-out: MIC M. smegmatis
[3] = test system: Mycolicibacterium aurum DSM 43999; assay: Antimycobacterial microdilution broth MIC (resazurin), M. aurum; format: cell-based; details: DSM43999, read-out: MIC M. aurum
HepG2 cell line = assay: Cytotoxicity CellTiter 96, HepG2; format: cell-based, human; details: Homo sapiens, HepG2, 24 h, 24 h incubation; ^c compound precipitated in the testing medium; ^d over the limit of tested concentrations
Experimental: The cytotoxicity of final compounds was determined in human hepatocellular carcinoma cell line HepG2.
Cytotoxicity determination
Human hepatocellular liver carcinoma cell line HepG2 purchased from Health Protection Agency Culture Collections (ECACC, Salisbury, UK) was cultured in MEM (Minimum Essentials Eagle Medium, Sigma–Aldrich) supplemented with 10% fetal bovine serum (PAA Laboratories, Pasching, Austria), 1% L-glutamine solution (Sigma–Aldrich) and non-essential amino acid solution (Sigma–Aldrich) in a humidified atmosphere containing 5% CO2 at 37 °C. For subculturing, the cells were harvested after trypsin/EDTA (Sigma–Aldrich) treatment at 37 °C. To evaluate cytotoxicity, the cells treated with the tested substances were used as experimental groups whereas untreated HepG2 cells served as controls. The cells were seeded in density 10,000 cells per well in a 96 well plate. The next day the cells were treated with each of the tested substances dissolved in DMSO. The tested substances were
in triplicates according to their solubility. Simultaneously, the controls representing 100% cell viability, 0% cell viability (the cells treated with 10% DMSO), no cell control and vehiculum controls were also
the reagent from the kit CellTiter 96 AQueous One Solution Cell Proliferation Assay (CellTiter 96; PROMEGA, Fitchburg, USA) was added. After 2h incubation at 37 °C, absorbance of samples was recorded at 490 nm (TECAN, Infinita M200, Austria). A standard toxicological parameter IC50 was calculated by nonlinear regression from a semilogarithmic plot of incubation concentration versus percentage of absorbance relative to untre ated controls using GraphPad Prism 8 software.

[4] = test system: Staphylococcus aureus CCM 4223, ATCC 29213; assay: Antibacterial microdilution broth MIC, SA; format: cell-based; details: Staphylococcus aureus
[5] = test system: Staphylococcus aureus subsp. aureus CCM 4750, ATCC 43300 (MRSA); assay: Antibacterial microdilution broth MIC, MRSA; format: cell-based; details: Staphylococcus aureus
[6] = test system: Staphylococcus epidermidis CCM 4418, ATCC 12228; assay: Antibacterial microdilution broth MIC, SE; format: cell-based
[7] = test system: Enterococcus faecalis CCM 4224, ATCC 29212; assay: Antibacterial microdilution broth MIC, EF; format: cell-based
[8] = test system: Escherichia coli CCM 3954, ATCC 25922; assay: Antibacterial microdilution broth MIC, EC; format: cell-based
[9] = test system: Acinetobacter baumannii DSM 30007, ATCC 19606; assay: Antibacterial microdilution broth MIC, ACI; format: cell-based
[10] = test system: Pseudomonas aeruginosa CCM 3955, ATCC 27853; assay: Antibacterial microdilution broth MIC, PA; format: cell-based
[11] = test system: Candida albicans CCM 8320, ATCC 24433; assay: Antifungal microdilution broth MIC, CA
[12] = test system: Candida krusei CCM 8271, ATCC 6258; assay: Antifungal microdilution broth MIC, CK; details: Pichia kudriavzevii
[13] = test system: Candida parapsilosis CCM 8260, ATCC 22019; assay: Antifungal microdilution broth MIC, CP; details: Lodderomyces parapsilosis
[14] = test system: Candida tropicalis CCM 8264, ATCC 750; assay: Antifungal microdilution broth MIC, CT
[15] = test system: Aspergillus fumigatus ATCC 204305; assay: Antifungal microdilution broth MIC, AF
[16] = test system: Lichtheimia corymbifera CCM 8077; assay: Antifungal microdilution broth MIC, LC
[17] = test system: Trichophyton interdigitale CCM 8377, ATCC 9533; assay: Antifungal microdilution broth MIC, TI; details: Trichophyton interdigitale
[18] = test system: Aspergillus flavus CCM 8363; assay: Antifungal microdilution broth MIC, AFla
[19] = test system: Klebsiella pneumoniae CCM 4415, ATCC 10031; assay: Antibacterial microdilution broth MIC, KP
[20] = ATCC204305, 24 h, read-out: MIC AF 24h
[21] = ATCC204305, 48 h, read-out: MIC AF 48h
[22] = CCM8077, 24 h, read-out: MIC LC 24h
[23] = CCM8077, 48 h, read-out: MIC LC 48h
[24] = CCM8363, 24 h, read-out: MIC AFla 24h
[25] = CCM8363, 48 h, read-out: MIC AFla 48h

Structure (SMILES) | MIC ([1]; Calculated from MIC (μg/mL)) | MIC [1] | MIC [2] | MIC [3] | IC50 (HepG2 cell line) | MIC ([4]; 24 h, read-out: MIC SA 24h) | MIC ([4]; 48 h, read-out: MIC SA 48h) | MIC ([5]; 24 h, read-out: MIC MRSA 24h) | MIC ([5]; 48 h, read-out: MIC MRSA 48h) | MIC ([6]; 24 h, read-out: MIC SE 24h) | MIC ([6]; 48 h, read-out: MIC SE 48h) | MIC ([7]; 24 h, read-out: MIC EF 24h) | MIC ([7]; 48 h, read-out: MIC EF 48h) | MIC ([8]; 24 h, read-out: MIC EC 24h) | MIC ([8]; 48 h, read-out: MIC EC 48h) | MIC ([9]; 24 h, read-out: MIC ACI 24h) | MIC ([9]; 48 h, read-out: MIC ACI 48h) | MIC ([10]; 24 h, read-out: MIC PA 24h) | MIC ([10]; 48 h, read-out: MIC PA 48h) | MIC ([11]; 24 h, read-out: MIC CA 24h) | other results
O=C(Cc1ccc(F)cc1)Nc1ccccn1 [Compound 31] | 543 µM | 125 µg/mL | 62.5 µg/mL (≈ 271 µM) | 250 µg/mL (≈ 1090 µM) | 517 µM | 500 µM (≈ 115 µg/mL) | > 500 µM | > 500 µM | > 500 µM | 250 µM (≈ 57.6 µg/mL) | > 500 µM | > 500 µM | > 500 µM | > 500 µM | > 500 µM | > 500 µM | > 500 µM | > 500 µM | > 500 µM | > 500 µM | MIC ([11]; 48 h, read-out: MIC CA 48h): > 500 µM; MIC ([12]; 24 h, read-out: MIC CK 24h): 500 µM (≈ 115 µg/mL); MIC ([12]; 48 h, read-out: MIC CK 48h): 500 µM (≈ 115 µg/mL); MIC ([13]; 24 h, read-out: MIC CP 24h): 500 µM (≈ 115 µg/mL); MIC ([13]; 48 h, read-out: MIC CP 48h): > 500 µM; MIC ([14]; 24 h, read-out: MIC CT 24h): > 500 µM; MIC ([14]; 48 h, read-out: MIC CT 48h): > 500 µM; MIC [15, 20]: > 500 µM; MIC [15, 21]: > 500 µM; MIC [16, 22]: > 500 µM; MIC [16, 23]: > 500 µM; MIC ([17]; 72 h, read-out: MIC TI 72h): > 500 µM; MIC ([17]; 120 h, read-out: MIC TI 120h): > 500 µM; MIC [18, 24]: > 500 µM; MIC [18, 25]: > 500 µM; MIC KP 24h [19]: > 500 µM; MIC KP 48h [19]: > 500 µM
COc1ccccc1CC(=O)Nc1ccccn1 [Compound 4] | 516 µM | 125 µg/mL | > 500 µg/mL | 250 µg/mL (≈ 1030 µM) | > 1000 µM | > 500 µM | > 500 µM | > 500 µM | > 500 µM | > 500 µM | > 500 µM | > 500 µM | > 500 µM | > 500 µM | > 500 µM | > 500 µM | > 500 µM | > 500 µM | > 500 µM | > 500 µM | MIC ([11]; 48 h, read-out: MIC CA 48h): > 500 µM; MIC ([12]; 24 h, read-out: MIC CK 24h): > 500 µM; MIC ([12]; 48 h, read-out: MIC CK 48h): > 500 µM; MIC ([13]; 24 h, read-out: MIC CP 24h): > 500 µM; MIC ([13]; 48 h, read-out: MIC CP 48h): > 500 µM; MIC ([14]; 24 h, read-out: MIC CT 24h): > 500 µM; MIC ([14]; 48 h, read-out: MIC CT 48h): > 500 µM; MIC [15, 20]: > 500 µM; MIC [15, 21]: > 500 µM; MIC [16, 22]: > 500 µM; MIC [16, 23]: > 500 µM; MIC ([17]; 72 h, read-out: MIC TI 72h): > 500 µM; MIC ([17]; 120 h, read-out: MIC TI 120h): > 500 µM; MIC [18, 24]: > 500 µM; MIC [18, 25]: > 500 µM; MIC KP 24h [19]: > 500 µM; MIC KP 48h [19]: > 500 µM
O=C(Cc1cccc(C(F)(F)F)c1)Nc1cccc(Cl)n1 [Compound 27] | 99.3 µM | 31.2 µg/mL | > 500 µg/mL | 15.6 µg/mL (≈ 49.7 µM) | 146 µM | > 500 µM | > 500 µM | > 500 µM | > 500 µM | 250 µM (≈ 78.7 µg/mL) | 250 µM (≈ 78.7 µg/mL) | > 500 µM | > 500 µM | > 500 µM | > 500 µM | > 500 µM | > 500 µM | > 500 µM | > 500 µM | > 500 µM | SI (selectivity index) ([1]; SI = HepG2 IC50 (μM)/MIC MtbH37Ra (μM), calculated for compounds with MIC ≤ 31.25 μg/mL): 1.5; MIC ([11]; 48 h, read-out: MIC CA 48h): > 500 µM; MIC ([12]; 24 h, read-out: MIC CK 24h): > 500 µM; MIC ([12]; 48 h, read-out: MIC CK 48h): > 500 µM; MIC ([13]; 24 h, read-out: MIC CP 24h): > 500 µM; MIC ([13]; 48 h, read-out: MIC CP 48h): > 500 µM; MIC ([14]; 24 h, read-out: MIC CT 24h): > 500 µM; MIC ([14]; 48 h, read-out: MIC CT 48h): > 500 µM; MIC [15, 20]: > 500 µM; MIC [15, 21]: > 500 µM; MIC [16, 22]: > 500 µM; MIC [16, 23]: > 500 µM; MIC ([17]; 72 h, read-out: MIC TI 72h): > 500 µM; MIC ([17]; 120 h, read-out: MIC TI 120h): > 500 µM; MIC [18, 24]: > 500 µM; MIC [18, 25]: > 500 µM; MIC KP 24h [19]: > 500 µM; MIC KP 48h [19]: > 500 µM
COc1ccc(CC(=O)Nc2ccc(Cl)cn2)cc1 [Compound 11, 2-(4-methoxyphenyl)-N-(5-chloropyridin-2-yl)acetamide] | > 1800 µM | > 500 µg/mL | > 500 µg/mL | > 500 µg/mL | 399 µM | 250 µM (≈ 69.2 µg/mL) | 500 µM (≈ 138 µg/mL) | > 500 µM | > 500 µM | > 500 µM | > 500 µM | > 500 µM | > 500 µM | > 500 µM | > 500 µM | > 500 µM | > 500 µM | > 500 µM | > 500 µM | > 500 µM | MIC ([11]; 48 h, read-out: MIC CA 48h): > 500 µM; MIC ([12]; 24 h, read-out: MIC CK 24h): > 500 µM; MIC ([12]; 48 h, read-out: MIC CK 48h): > 500 µM; MIC ([13]; 24 h, read-out: MIC CP 24h): > 500 µM; MIC ([13]; 48 h, read-out: MIC CP 48h): > 500 µM; MIC ([14]; 24 h, read-out: MIC CT 24h): > 500 µM; MIC ([14]; 48 h, read-out: MIC CT 48h): > 500 µM; MIC [15, 20]: > 500 µM; MIC [15, 21]: > 500 µM; MIC [16, 22]: > 500 µM; MIC [16, 23]: > 500 µM; MIC ([17]; 72 h, read-out: MIC TI 72h): > 500 µM; MIC ([17]; 120 h, read-out: MIC TI 120h): > 500 µM; MIC [18, 24]: > 500 µM; MIC [18, 25]: > 500 µM; MIC KP 24h [19]: > 500 µM; MIC KP 48h [19]: > 500 µM
